Data from PubChem BioAssay (NCI).
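Results reflect a 48-hour exposure of cells in 96-well plates to compound at five concentrations. At the GI50, growth is halved. At the TGI there is no net growth.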

Tests used:
Assay in all cases: growth of human tumour cells (NCI), 48 h
SK-MEL-2 melanoma = system: SK-MEL-2 melanoma
LOX IMVI melanoma = system: LOX IMVI melanoma
SF-539 CNS = system: SF-539 CNS
SNB-19 CNS = system: SNB-19 CNS
UACC-257 melanoma = system: UACC-257 melanoma
SK-OV-3 ovarian = system: SK-OV-3 ovarian
HOP-92 NSCLC = system: HOP-92 NSCLC
K-562 leukemia = system: K-562 leukemia
EKVX NSCLC = system: EKVX NSCLC
SR leukemia = system: SR leukemia

Structure (SMILES) | GI50 (SK-MEL-2 melanoma) | TGI (SK-MEL-2 melanoma) | GI50 (LOX IMVI melanoma) | TGI (LOX IMVI melanoma) | GI50 (SF-539 CNS) | TGI (SF-539 CNS) | GI50 (SNB-19 CNS) | TGI (SNB-19 CNS) | GI50 (UACC-257 melanoma) | TGI (UACC-257 melanoma) | GI50 (SK-OV-3 ovarian) | TGI (SK-OV-3 ovarian) | TGI (HOP-92 NSCLC) | TGI (K-562 leukemia) | TGI (EKVX NSCLC) | TGI (SR leukemia) | GI50 (HOP-92 NSCLC) | GI50 (K-562 leukemia) | GI50 (SR leukemia) | GI50 (EKVX NSCLC)
Cc1ccc2[nH]cc(-c3nc(-c4c[nH]c5ncccc45)cs3)c2c1 | > 100 µM | > 100 µM | > 100 µM | > 100 µM | > 100 µM | > 100 µM | > 100 µM | > 100 µM | > 100 µM | > 100 µM | > 100 µM | > 100 µM | – | – | – | – | – | – | – | –
O=C1C(Br)=CC2([N+](=O)[O-])CCNc3c(O)c4c5c(c3C2=C1Br)=NCCC=5C=N4 (stereo not drawn) | – | 3.15 µM | – | 6.4 µM | – | 4.55 µM | – | 9.72 µM | – | 0.887 µM | – | 13.3 µM | 2.07 µM | 2.33 µM | 7.43 µM | – | – | – | – | –
COc1ccc2[nH]c(C(=O)N3CC(CCl)c4ccc(N)cc43)cc2c1 (stereo not drawn) | – | 0.396 µM | – | 0.601 µM | – | 1.7 µM | – | > 44.5 µM | – | – | – | > 100 µM | > 100 µM | 0.494 µM | 2.78 µM | > 100 µM | – | – | – | –
CC(=O)O[C@H]1CC[C@@]2(C)C(=CC[C@@H]3[C@@H]2CC[C@]2(C)C(c4cccnc4)=CC[C@@H]32)C1 | > 100 µM | > 100 µM | 6.49 µM | > 100 µM | 3.14 µM | > 100 µM | 24.1 µM | > 100 µM | 28.1 µM | > 100 µM | 5.83 µM | 95.8 µM | 32.5 µM | > 100 µM | > 100 µM | 8.35 µM | 3.08 µM | 4.04 µM | 3.01 µM | 4.62 µM
N/N=C(\C(=O)Nc1c(Cl)cc([N+](=O)[O-])cc1Cl)C(c1cnc2ccc([N+](=O)[O-])cc2n1)[N+](=O)[O-] (stereo not drawn) | – | > 100 µM | – | > 100 µM | – | > 100 µM | – | > 100 µM | – | > 100 µM | – | > 100 µM | > 100 µM | > 100 µM | > 100 µM | > 100 µM | – | – | – | –
CC(=O)OC(Cc1cc(C=C(C(F)(F)F)C(F)(F)F)cc(C)n1)(C(F)(F)F)C(F)(F)F | – | > 100 µM | – | 3.49 µM | – | 5.27 µM | – | 4.38 µM | – | – | – | > 51.9 µM | 2.32 µM | 4.28 µM | 5.87 µM | – | – | – | – | –
CCCC/C=C1\CCC(CN2CCCCC2)C1=O (stereo not drawn) | – | > 54.4 µM | – | > 48.2 µM | – | 36.1 µM | – | 49.4 µM | – | 42 µM | – | > 56.2 µM | 21 µM | 22.8 µM | 31.9 µM | > 24.7 µM | – | – | – | –
COC(=O)/C=C\Sc1ccn(/C=C\C(=O)OC)c(=S)n1 | – | 46.9 µM | – | 9.35 µM | – | 36.9 µM | – | 41.6 µM | – | > 100 µM | – | – | 47.7 µM | > 100 µM | 68.2 µM | 38.8 µM | – | – | – | –
COc1ccc2c3c1OC1CC(O)C=CC31CCN(C)C2 (stereo not drawn) | – | > 150 µM | – | > 150 µM | – | > 33.8 µM | – | > 150 µM | – | > 150 µM | – | > 150 µM | > 150 µM | > 150 µM | > 150 µM | – | – | – | – | –
CN(C)c1ccc(N2C(=S)SC(=Nc3ccccc3)C2=Nc2ccccc2)cc1 | – | > 100 µM | – | – | – | – | – | > 100 µM | – | – | – | > 100 µM | – | > 100 µM | – | > 100 µM | – | – | – | –
O=C(Nc1ccccc1F)c1c(O)nc2sccn2c1=O | – | > 10 µM | – | > 10 µM | – | > 10 µM | – | > 10 µM | – | – | – | > 10 µM | – | – | > 10 µM | > 10 µM | – | – | – | –
